We go through 9 compounds from PubChem BioAssay (NCI).

Assay in all cases: NCI anticancer screen, dose series, 48 h
Experiment [1] has as its system COLO 205 colon.
Experiment [2] relates to K-562 leukemia.
The subject of experiment [3] is HT29 colon.
The test system of experiment [4] is MCF7 breast.
The subject of experiment [5] is HOP-62 NSCLC.
Experiment [6] deals with HS 578T breast.
Experiment [7] deals with SK-MEL-28 melanoma.
Experiment [8] relates to A549 NSCLC.
In experiment [9] the test system is NCI/ADR-RES ovarian.
In experiment [10] the test system is A498 renal.

The structures appear in SMILES notation.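 Assay format: 96-well plates, 48-hour exposure. GI50: concentration for 50% inhibition of growth. TGI: total growth inhibition.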

In the case of `COc1ccc(OC)c(-c2cc(-c3ccc(Cl)cc3)nn2-c2ccc(S(=O)(=O)NC(C)=O)cc2)c1`, the GI50 in experiment [1] is 18200 nM; in experiment [2], 3180 nM; in experiment [3] it was 5540 nM; in experiment [4], 26400 nM; in experiment [5], 10500 nM; in [6], 38.2 µM. In addition, the results for the GI50 in experiment [7] and in experiment [8] were 21300 nM and 28600 nM, respectively. In addition, the TGI in experiment [1] was 46.7 µM; in [2], more than 100 µM; in [3] it was more than 100 µM; in [4] it was more than 100 µM; in experiment [5] it was 22.2 µM; in [6], more than 100 µM. The results for the TGI in experiment [7] and in experiment [8] were 57.9 µM and more than 100 µM, respectively.
For the compound `CCN(CC)CCCC(C)N=C(C1=C(C(=NC(C)CCCN(CC)CC)c2cccc(OC)c2)C(=O)NC1=O)c1cccc(OC)c1` (stereo unspecified), the GI50 in [1] was 772 nM; in experiment [2] it was 1340 nM; in experiment [3], 631 nM; in experiment [9], 2840 nM; in experiment [10] it was 1.85 µM; in experiment [4], 1250 nM. Further, the GI50 in experiment [5] was 825 nM; in experiment [6] it was 4.24 µM; in experiment [8] it was 966 nM. The TGI in [1] was determined as 1.56 µM; in [2], 4.2 µM; in experiment [3], 1.79 µM; in experiment [9], 12.2 µM; in experiment [10], 8.38 µM; in experiment [4], 3.51 µM. The TGI in [5] came out at 2.34 µM; in experiment [6], 14.5 µM; in experiment [8], 2.08 µM.
`CC[N+]1(C)CCC(O)(c2ccc(OC)cc2)C(C(=O)c2ccc(OC)cc2)C1` (stereo unspecified): the TGI in experiment [1] is 10.6 µM; in experiment [2], more than 22.4 µM; in experiment [3], 15.7 µM; in experiment [10], 32.6 µM; in experiment [4] it was 17.7 µM; in experiment [5] it was 34.1 µM. Further, the TGI came to 7.43 µM in experiment [6], 29.3 µM in [7] and 41.3 µM in experiment [8].
On to `C=C1CCC2C(C)(COC(=O)CC)C(OC(=O)CC)CCC2(C)C1C/C=C1/C(=O)OCC1OC(=O)CC` (stereo unspecified), for which the GI50 is 2100 nM in [1]; 1790 nM in [2]; 987 nM in experiment [3]; 2840 nM in experiment [9]; 4.05 µM in [10]; 1700 nM in experiment [5]. In addition, the GI50 in experiment [6] is 3.41 µM; in experiment [7], 1950 nM; in [8] it was 2030 nM. Also, the TGI worked out at 3.96 µM in experiment [1]; 10.4 µM in [2]; 2.24 µM in [3]; 10.5 µM in experiment [9]; 13.3 µM in [10]; 3.27 µM in experiment [5]. The TGI is 25.5 µM in experiment [6], 4.1 µM in experiment [7] and 4.22 µM in experiment [8].
On to `Cc1cc(C)c(Cn2cnc3c(Cl)ncnc32)c(C)c1CCl`, for which the GI50 in experiment [1] was 79100 nM; in experiment [2] it was 44200 nM; in [3], 25800 nM; in experiment [9] it was more than 100000 nM; in [10], more than 100 µM; in experiment [4], 30500 nM. In addition, the GI50 in experiment [5] was more than 100000 nM; in experiment [6], more than 100 µM; in [8], 37700 nM. For the same compound, the TGI in experiment [1], in experiment [2], in experiment [3], in [9], in experiment [10] and in experiment [4] was more than 100 µM in each case. Also, the TGI in experiment [5], in experiment [6] and in experiment [8] was more than 100 µM in each case.
`COC(=O)c1cc(O)c2c(c1C(=O)OC)C[C@H]1[C@@H]3CC=C4C[C@@H](O)CC[C@]4(C)[C@H]3CC[C@]21C`: the GI50 was 2410 nM in [2]; 2740 nM in experiment [3]; 3610 nM in experiment [9]; 3.7 µM in [10]; 3150 nM in experiment [4]; 2240 nM in experiment [5]. For the same compound, the GI50 is 2.78 µM in experiment [6], 2710 nM in [7] and 3060 nM in [8]. The TGI worked out at 7.77 µM in [2]; 7 µM in [3]; 24.4 µM in [9]; 20.1 µM in [10]; 12.8 µM in [4]; 6.27 µM in [5]. The TGI in [6] turned out to be 19.5 µM; in experiment [7], 8.59 µM; in experiment [8], 11.7 µM.
`CCCCCCCCCCCCCCCCCC(=O)OCC(COC(=O)CCCN)OC(=O)CCCN` (stereo unspecified): the TGI in experiment [1] is 31.1 µM; in [2], more than 100 µM; in experiment [3], 33.5 µM; in experiment [9], 37 µM; in experiment [4], 47.1 µM; in experiment [5], 33.8 µM. Also, the TGI in experiment [6] came to 43.7 µM; in experiment [7], 34.4 µM; in experiment [8], 16.4 µM.
In the case of `COc1ccc(OC)c2c1[nH]c(=O)c1c3ncccc3cn21`, the GI50 in [1] is 2790 nM; in experiment [2], 3620 nM; in experiment [3], 1490 nM; in [9] it was 2560 nM; in [10], 3.95 µM; in [4] it was 2170 nM. Moreover, the figures for the GI50 in [5], in [6] and in experiment [8] were 3220 nM, 5.37 µM and 2830 nM, respectively. Besides, the TGI was more than 100 µM in experiment [1]; more than 100 µM in experiment [2]; 4.34 µM in experiment [3]; more than 100 µM in experiment [9]; more than 100 µM in [10]; 27.3 µM in [4]. In addition, the TGI in experiment [5] was more than 100 µM; in experiment [6], more than 100 µM; in [8] it was 15.3 µM.
Regarding `Cn1c2ccc(Br)cc2c2c3c(c4c5ccccc5[nH]c4c21)C(=O)N(O)C3=O`, the GI50 in experiment [1] was 231 nM; in experiment [2], 168 nM; in [3], 230 nM; in experiment [9], 357 nM; in [4], 40 nM; in experiment [5] it was 131 nM. Also, the GI50 was 0.291 µM in experiment [6], 212 nM in [7] and 630 nM in experiment [8]. The TGI in experiment [1] was 0.73 µM; in experiment [3], 0.658 µM; in experiment [9] it was more than 100 µM; in experiment [4], 0.309 µM; in [5] it was 0.653 µM; in experiment [6], 1.04 µM. For the same compound, the TGI amounted to 0.498 µM in [7] and 2.49 µM in experiment [8].
